Here are results for six compounds from US5250561A, “Tetrahydroindazole, tetrahydrocyclopentapyrazole, and hexahydrocycloheptapyrazole compounds and their use as HMG-COA reductase inhibitors” (Ortho Pharmaceutical Corporation, priority 1992, dated 1993).

In test [1] the target is HMG-CoA reductase. Put plainly: HMG-CoA Reductase Isolation And Assay (ammonium sulfate precipitated enzyme from rat liver). It is filed as biochemical, male Wistar rats. Particulars: racemic mixture. The protocol:
Livers were harvested from male Wistar rats (250 g) following a five day feeding with powdered chow containing 2% cholestyramine. Ammonium sulfate precipitated HMG-CoA reductase was prepared from these livers according to the method of Heller, et. al. (Heller, R. A. Shrewsbury, M. A. Journal of Biological Chemistry, 251, 1976, 3815-3822). HMG-CoA reductase activity was measured using a modification of the procedure of Edwards, et. al. (Edwards, P. A., Lemongello, […]. Journal of Lipid Research, 20, 1979, 40-46). The effects of compounds on HMG-CoA reductase activity were determined by combining the compound with the enzyme and preincubating for 10 minutes prior to addition of the substrate […].

Another test deals with Hep-G2 cells. Put plainly: Cell Culture Cholesterol Biosynthesis Assay. In kind it is cell-based. Particulars: Homo sapiens, racemic mixture. As for the experimental part:
When the cells were 2/3 confluent, they were fed MEM containing Earles salts and delipidated serum protein (DLP) at 5 mg/mL and then incubated for a period of 24 h. DLP was prepared according to the procedure of Rothblat, et. al. ([…]., Howard, B. V. In Vitro (Rockville), 12, 1976, 554-557). The DLP medium was then removed and 3.3 mL of media containing the drug indicated was added. […] Fatty acids were extracted and digitonin precipitable sterols were recovered according the procedure of Kanduch and Saucier (Kandutch, A. A., Saucier, S. E. Journal of Biological Chemistry, 244, 1969, 2299-2305). To adjust for cell number per flask, the cholesterol synthesized was normalized to the fatty acids synthesized and results were expressed as percent inhibition vs. control.

For test [2] the following is noted: cited from earlier work.
In test [3] the test system is HMG-CoA reductase. Particulars: lovastatin: open dihydroxy acid form; cited from earlier work.

One may read the IC50 as the point on the concentration scale where inhibition reaches its midpoint. With `O=C(O)C[C@H](O)C[C@H](O)/C=C/c1c2c(nn1-c1ccc(F)cc1)C(CC=Cc1ccccc1)CCC2` (stereo partly shown) [Compound 34], the IC50 stood at 0.032 µM on HMG-CoA reductase [1] (Table III) and 1.3 µM in the test on Hep-G2 cells (HepG2, Table III).

For the compound `CCOC(=O)C[C@H](O)C[C@H](O)/C=C/c1c2c(nn1-c1ccc(F)cc1)C(Cc1cccc(OC)c1)CCC2` (stereo partly shown) [Compound 58], the IC50 on HMG-CoA reductase [1] (Table IV) is 0.21 µM; in the test on Hep-G2 cells (HepG2, Table IV) it was 0.8 µM.

Turning to `CCOC(=O)C[C@H](O)C[C@H](O)/C=C/c1c2c(nn1-c1ccc(F)cc1)C(Cc1ccc(C)cc1)CCC2` (stereo partly shown) [Compound 62], the IC50 at HMG-CoA reductase [1] (Table IV) was determined as 0.07 µM; with Hep-G2 cells (HepG2, Table IV) it was 0.2 µM.

`CC(C)(C)c1ccc(CC2CCCc3c2nn(-c2ccc(F)cc2)c3/C=C/[C@@H]2C[C@@H](O)CC(=O)O2)cc1` (stereo partly shown) [Compound 82]: the IC50 amounted to 0.07 µM at HMG-CoA reductase [1] (Table V) and 0.23 µM in the test with Hep-G2 cells (HepG2, Table V).

`CC[C@H](C)C(=O)O[C@H]1C[C@@H](C)C=C2C=C[C@H](C)[C@H](CC[C@@H]3C[C@@H](O)CC(=O)O3)[C@H]21` [lovastatin]: the “effect of combined administration with other hypolipidemic agents on LDL and total cholesterol concentrations” value in test [2] (combination) is “potentiate their effects on LDL and total cholesterol concentrations”. The “reduction of LDL cholesterol levels compared with cholestyramine and probucol” value in test [2] (primary hypercholesterolemia) is recorded as “reduced LDL cholesterol levels to a significantly greater extent”. Also, in test [2] (several large clinical studies), the “increase in high density lipoprotein (HDL) cholesterol concentration” value is recorded as “up to 10%”. Besides, the “inhibition of HMG-CoA reductase (in words)” value with HMG-CoA reductase [3] was “reversible, competitive inhibitor of the enzyme”.

Regarding `CCC(C)(C)C(=O)O[C@H]1C[C@@H](C)C=C2C=C[C@H](C)[C@H](CC[C@@H]3C[C@@H](O)CC(=O)O3)[C@H]21` [simvastatin], the “inhibition of HMG-CoA reductase (in words)” value in the test with HMG-CoA reductase [3] is “inhibitors of HMG-CoA reductase”.
